Source: publication PMC10033419, “Blocking NS3–NS4B interaction inhibits dengue virus in non-human primates” (Nature, 2023)
“And” between values parts separate entries of the source, which are not always exact repeats. Equal entries are not always repeated. Where two headings read alike, the source gives them in different places.

Tested on: DENV-2 RL
Assay: microbe, parasite or virus in culture
Type: cell-based

Measured: EC50

COc1cc(N[C@H](C(=O)c2c[nH]c3ccc(OC(F)(F)F)cc23)c2ccc(Cl)cc2OC)cc(S(C)(=O)=O)c1 [JNJ-1802]
0.375 µg/mL and 643 nM: Dengue virus, DENV2, Vero, read-out: EC50 values Ave, B sample, passage 41 | Dengue virus, DENV2, Vero, read-out: EC50 values Ave, B sample, passage 42 | Dengue virus, DENV2, Vero, read-out: EC50 values Ave, B sample, passage 43 | Dengue virus, DENV2, Vero, read-out: EC50 values Ave, B sample, passage 44 | Dengue virus, DENV2, Vero, read-out: EC50 values Ave, B sample, passage 45 | Dengue virus, DENV2, Vero, read-out: EC50 values Ave, B sample, passage 46 | Dengue virus, DENV2, Vero, read-out: EC50 values Ave, B sample, passage 47
32.2 nM: A sample, passage 20, read-out: EC50 values Ave | A sample, passage 21, read-out: EC50 values Ave | A sample, passage 22, read-out: EC50 values Ave | A sample, passage 23, read-out: EC50 values Ave | B sample, passage 29, read-out: EC50 values Ave | B sample, passage 30, read-out: EC50 values Ave
0.0375 µg/mL and 64.3 nM: Dengue virus, DENV2, Vero, read-out: EC50 values Ave, A sample, passage 24 | Dengue virus, DENV2, Vero, read-out: EC50 values Ave, A sample, passage 25
0.195 ng/mL: Dengue virus, DENV2, Vero, read-out: EC50 values [Well 1], A sample, passage 10 | Dengue virus, DENV2, Vero, read-out: EC50 values [Well 1], A sample, passage 11 | Dengue virus, DENV2, Vero, read-out: EC50 values [Well 1], A sample, passage 12
200 ng/mL: Dengue virus, DENV2, Vero, read-out: EC50 values [Well 1], A sample, passage 27 | Dengue virus, DENV2, Vero, read-out: EC50 values [Well 1], A sample, passage 28 | Dengue virus, DENV2, Vero, read-out: EC50 values [Well 1], A sample, passage 29 | Dengue virus, DENV2, Vero, read-out: EC50 values [Well 1], A sample, passage 30
3.13 ng/mL: Dengue virus, DENV2, Vero, read-out: EC50 values [Well 1], A sample, passage 17
0.391 ng/mL: Dengue virus, DENV2, Vero, read-out: EC50 values [Well 1], A sample, passage 13
1 nM: Dengue virus, DENV2, Vero, read-out: EC50 by microscopic evaluation of CPE, experiment A, passage 15
0.126 nM: Dengue virus, DENV2, Vero, read-out: EC50 values Ave, A sample, passage 6 | Dengue virus, DENV2, Vero, read-out: EC50 values Ave, A sample, passage 9 | Dengue virus, DENV2, Vero, read-out: EC50 values Ave, B sample, passage 6 | Dengue virus, DENV2, Vero, read-out: EC50 values Ave, B sample, passage 7 | Dengue virus, DENV2, Vero, read-out: EC50 values Ave, B sample, passage 8 | Dengue virus, DENV2, Vero, read-out: EC50 values Ave, B sample, passage 9 | Dengue virus, DENV2, Vero, read-out: EC50 values Ave, B sample, passage 10 | Dengue virus, DENV2, Vero, read-out: EC50 values Ave, B sample, passage 14 | Dengue virus, DENV2, Vero, read-out: EC50 values Ave, B sample, passage 15
6.25 ng/mL: Dengue virus, DENV2, Vero, read-out: EC50 values [Well 1], A sample, passage 18
129 nM: Dengue virus, DENV2, Vero, read-out: EC50 values Ave, A sample, passage 26 | Dengue virus, DENV2, Vero, read-out: EC50 values Ave, A sample, passage 31 | Dengue virus, DENV2, Vero, read-out: EC50 values Ave, A sample, passage 32
0.0469 µg/mL and 80.4 nM: Dengue virus, DENV2, Vero, read-out: EC50 values Ave, B sample, passage 33 | Dengue virus, DENV2, Vero, read-out: EC50 values Ave, B sample, passage 34 | Dengue virus, DENV2, Vero, read-out: EC50 values Ave, B sample, passage 35 | Dengue virus, DENV2, Vero, read-out: EC50 values Ave, B sample, passage 36 | Dengue virus, DENV2, Vero, read-out: EC50 values Ave, B sample, passage 37 | Dengue virus, DENV2, Vero, read-out: EC50 values Ave, B sample, passage 38
0.000293 µg/mL and 0.503 nM: Dengue virus, DENV2, Vero, read-out: EC50 values Ave, A sample, passage 13 | Dengue virus, DENV2, Vero, read-out: EC50 values Ave, B sample, passage 13 | Dengue virus, DENV2, Vero, read-out: EC50 values Ave, B sample, passage 19 | Dengue virus, DENV2, Vero, read-out: EC50 values Ave, B sample, passage 20 | Dengue virus, DENV2, Vero, read-out: EC50 values Ave, B sample, passage 21 | Dengue virus, DENV2, Vero, read-out: EC50 values Ave, B sample, passage 22
0.000146 µg/mL and 0.251 nM: Dengue virus, DENV2, Vero, read-out: EC50 values Ave, A sample, passage 10 | Dengue virus, DENV2, Vero, read-out: EC50 values Ave, A sample, passage 11 | Dengue virus, DENV2, Vero, read-out: EC50 values Ave, A sample, passage 12 | Dengue virus, DENV2, Vero, read-out: EC50 values Ave, B sample, passage 11 | Dengue virus, DENV2, Vero, read-out: EC50 values Ave, B sample, passage 12 | Dengue virus, DENV2, Vero, read-out: EC50 values Ave, B sample, passage 16 | Dengue virus, DENV2, Vero, read-out: EC50 values Ave, B sample, passage 17 | Dengue virus, DENV2, Vero, read-out: EC50 values Ave, B sample, passage 18
0.00234 µg/mL and 4.02 nM: Dengue virus, DENV2, Vero, read-out: EC50 values Ave, A sample, passage 17 | Dengue virus, DENV2, Vero, read-out: EC50 values Ave, B sample, passage 25
260 nM: Dengue virus, DENV2, Vero, read-out: EC50 by microscopic evaluation of CPE, experiment A, passage 30 | Dengue virus, DENV2, Vero, read-out: EC50 by microscopic evaluation of CPE, experiment A, passage 35
50 ng/mL: Dengue virus, DENV2, Vero, read-out: EC50 values [Well 1], A sample, passage 24 | Dengue virus, DENV2, Vero, read-out: EC50 values [Well 1], A sample, passage 25
4 nM: Dengue virus, DENV2, Vero, read-out: EC50 by microscopic evaluation of CPE, experiment B, passage 25
0.00117 µg/mL and 2.01 nM: Dengue virus, DENV2, Vero, read-out: EC50 values Ave, A sample, passage 16 | Dengue virus, DENV2, Vero, read-out: EC50 values Ave, B sample, passage 24
25 ng/mL: Dengue virus, DENV2, Vero, read-out: EC50 values [Well 1], A sample, passage 20 | Dengue virus, DENV2, Vero, read-out: EC50 values [Well 1], A sample, passage 21 | Dengue virus, DENV2, Vero, read-out: EC50 values [Well 1], A sample, passage 22 | Dengue virus, DENV2, Vero, read-out: EC50 values [Well 1], A sample, passage 23
0.3 µg/mL and 515 nM: Dengue virus, DENV2, Vero, read-out: EC50 values Ave, A sample, passage 37 | Dengue virus, DENV2, Vero, read-out: EC50 values Ave, A sample, passage 38
80 nM: Dengue virus, DENV2, Vero, read-out: EC50 by microscopic evaluation of CPE, experiment B, passage 35
0.0234 µg/mL and 40.2 nM: Dengue virus, DENV2, Vero, read-out: EC50 values Ave, B sample, passage 31 | Dengue virus, DENV2, Vero, read-out: EC50 values Ave, B sample, passage 32
1290 nM: Dengue virus, DENV2, Vero, read-out: EC50 by microscopic evaluation of CPE, experiment A, passage 40 | Dengue virus, DENV2, Vero, read-out: EC50 by microscopic evaluation of CPE, experiment A, passage 42 | Dengue virus, DENV2, Vero, read-out: EC50 by microscopic evaluation of CPE, experiment B, passage 50 | Dengue virus, DENV2, Vero, read-out: EC50 values Ave, A sample, passage 39 | Dengue virus, DENV2, Vero, read-out: EC50 values Ave, A sample, passage 40 | Dengue virus, DENV2, Vero, read-out: EC50 values Ave, A sample, passage 41 | Dengue virus, DENV2, Vero, read-out: EC50 values Ave, A sample, passage 42 (END) | Dengue virus, DENV2, Vero, read-out: EC50 values Ave, B sample, passage 48 | Dengue virus, DENV2, Vero, read-out: EC50 values Ave, B sample, passage 49 | Dengue virus, DENV2, Vero, read-out: EC50 values Ave, B sample, passage 50 (END)
0.06 nM: Dengue virus, DENV2, Vero, read-out: EC50 by microscopic evaluation of CPE, experiment A, passage 0 | Dengue virus, DENV2, Vero, read-out: EC50 by microscopic evaluation of CPE, experiment A, passage 5 | Dengue virus, DENV2, Vero, read-out: EC50 by microscopic evaluation of CPE, experiment B, passage 0 | Dengue virus, DENV2, Vero, read-out: EC50 by microscopic evaluation of CPE, experiment B, passage 5
0.25 nM: Dengue virus, DENV2, Vero, read-out: EC50 by microscopic evaluation of CPE, experiment A, passage 10
0.049 ng/mL: Dengue virus, DENV2, Vero, read-out: EC50 values [Well 1], A sample, passage 1 | Dengue virus, DENV2, Vero, read-out: EC50 values [Well 1], A sample, passage 2 | Dengue virus, DENV2, Vero, read-out: EC50 values [Well 1], A sample, passage 3 | Dengue virus, DENV2, Vero, read-out: EC50 values [Well 1], A sample, passage 4 | Dengue virus, DENV2, Vero, read-out: EC50 values [Well 1], A sample, passage 5 | Dengue virus, DENV2, Vero, read-out: EC50 values [Well 1], A sample, passage 7 | Dengue virus, DENV2, Vero, read-out: EC50 values [Well 1], A sample, passage 8
322 nM: Dengue virus, DENV2, Vero, read-out: EC50 values Ave, B sample, passage 40
100 ng/mL: Dengue virus, DENV2, Vero, read-out: EC50 values [Well 1], A sample, passage 26 | Dengue virus, DENV2, Vero, read-out: EC50 values [Well 1], A sample, passage 31
64 nM: Dengue virus, DENV2, Vero, read-out: EC50 by microscopic evaluation of CPE, experiment A, passage 25
640 nM: Dengue virus, DENV2, Vero, read-out: EC50 by microscopic evaluation of CPE, experiment B, passage 45
1.56 ng/mL: Dengue virus, DENV2, Vero, read-out: EC50 values [Well 1], A sample, passage 16
0.00469 µg/mL and 8.04 nM: Dengue virus, DENV2, Vero, read-out: EC50 values Ave, A sample, passage 18 | Dengue virus, DENV2, Vero, read-out: EC50 values Ave, B sample, passage 26 | Dengue virus, DENV2, Vero, read-out: EC50 values Ave, B sample, passage 27 | Dengue virus, DENV2, Vero, read-out: EC50 values Ave, B sample, passage 28
3.7e-05 µg/mL and 0.063 nM: Dengue virus, DENV2, Vero, read-out: EC50 values Ave, A sample, passage 1 | Dengue virus, DENV2, Vero, read-out: EC50 values Ave, A sample, passage 2 | Dengue virus, DENV2, Vero, read-out: EC50 values Ave, A sample, passage 3 | Dengue virus, DENV2, Vero, read-out: EC50 values Ave, A sample, passage 4 | Dengue virus, DENV2, Vero, read-out: EC50 values Ave, A sample, passage 5 | Dengue virus, DENV2, Vero, read-out: EC50 values Ave, A sample, passage 7 | Dengue virus, DENV2, Vero, read-out: EC50 values Ave, A sample, passage 8 | Dengue virus, DENV2, Vero, read-out: EC50 values Ave, B sample, passage 1 | Dengue virus, DENV2, Vero, read-out: EC50 values Ave, B sample, passage 2 | Dengue virus, DENV2, Vero, read-out: EC50 values Ave, B sample, passage 3 | Dengue virus, DENV2, Vero, read-out: EC50 values Ave, B sample, passage 4 | Dengue virus, DENV2, Vero, read-out: EC50 values Ave, B sample, passage 5
0.5 nM: Dengue virus, DENV2, Vero, read-out: EC50 by microscopic evaluation of CPE, experiment B, passage 20
0.0938 µg/mL and 161 nM: Dengue virus, DENV2, Vero, read-out: EC50 values Ave, B sample, passage 39
1.01 nM: Dengue virus, DENV2, Vero, read-out: EC50 values Ave, A sample, passage 14 | Dengue virus, DENV2, Vero, read-out: EC50 values Ave, A sample, passage 15 | Dengue virus, DENV2, Vero, read-out: EC50 values Ave, B sample, passage 23
0.15 µg/mL and 257 nM: Dengue virus, DENV2, Vero, read-out: EC50 values Ave, A sample, passage 27 | Dengue virus, DENV2, Vero, read-out: EC50 values Ave, A sample, passage 28 | Dengue virus, DENV2, Vero, read-out: EC50 values Ave, A sample, passage 29 | Dengue virus, DENV2, Vero, read-out: EC50 values Ave, A sample, passage 30 | Dengue virus, DENV2, Vero, read-out: EC50 values Ave, A sample, passage 33 | Dengue virus, DENV2, Vero, read-out: EC50 values Ave, A sample, passage 34 | Dengue virus, DENV2, Vero, read-out: EC50 values Ave, A sample, passage 35 | Dengue virus, DENV2, Vero, read-out: EC50 values Ave, A sample, passage 36
